Patent publication US20080090814A1, “PYRIDAZINONE COMPOUNDS” (Anadys Pharmaceuticals, Inc., priority 2006, published 2008)

The molecules below were run against HCV NS5B polymerase (Hepatitis C virus genotype 1a, UniProt P27958) (assay: HCV polymerase inhibition assay (FlashPlate, [α-33P]GTP incorporation)). Conditions: 20 nM enzyme, 0.6 μM GTP, 250 nM 5′biotinylated oligo (rG13)/poly rC, 75 min at 28° C.
Type: biochemical
Protocol: Compounds were tested for HCV polymerase inhibition. Assays were performed in a 96-well streptavidin-coated FlashPlate using 20 nM enzyme, 0.5 μCi of [α-^33P]GTP, 0.6 μM GTP, and 250 nM 5′biotinylated oligo (rG13)/poly rC in 20 mM Tris-HCl, pH 7.5, 5 mM MgCl2, 5 mM dithiothreitol, 0.1 g/L bovine serum albumin, and 100 U/mL RNAse inhibitor. The reaction was stopped by aspiration after 75 min at 28° C. and the plate was washed several times. After washing and drying the plate, incorporated radioactivity was counted using a Microbeta scintillation counter. IC50 values were calculated relative to the uninhibited control and inhibition data were fitted to a 4-parameter IC50 equation. For very potent inhibitors, the data were fitted to a tight binding quadratic equation to obtain IC50 values.

Chain of HCV NS5B polymerase (P27958 2421-3011): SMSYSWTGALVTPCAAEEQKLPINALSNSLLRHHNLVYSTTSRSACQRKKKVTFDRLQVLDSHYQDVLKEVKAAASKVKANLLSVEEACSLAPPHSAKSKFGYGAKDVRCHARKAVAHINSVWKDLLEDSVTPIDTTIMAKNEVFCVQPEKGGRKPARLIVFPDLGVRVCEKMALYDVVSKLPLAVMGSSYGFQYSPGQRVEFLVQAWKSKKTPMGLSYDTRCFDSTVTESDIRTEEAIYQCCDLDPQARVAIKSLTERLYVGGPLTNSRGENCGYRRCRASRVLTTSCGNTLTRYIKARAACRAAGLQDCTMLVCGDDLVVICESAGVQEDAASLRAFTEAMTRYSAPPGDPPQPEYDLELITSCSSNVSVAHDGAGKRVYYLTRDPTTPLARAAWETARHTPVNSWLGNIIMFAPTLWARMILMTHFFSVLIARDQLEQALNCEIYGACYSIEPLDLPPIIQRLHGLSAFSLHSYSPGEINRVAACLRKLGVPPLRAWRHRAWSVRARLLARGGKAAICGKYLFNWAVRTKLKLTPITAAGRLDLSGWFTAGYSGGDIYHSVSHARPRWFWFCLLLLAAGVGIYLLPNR

IC50 | Structure (SMILES)
> 1 µM | CC(C)CCn1nc(-c2cccs2)c(O)c(C2=CS(=O)(=O)c3ccccc3N2)c1=O [Compound 16, 4-(1,1-Dioxo-1,4-dihydro-1λ^6-benzo[1,4]thiazin-3-yl)-5-hydroxy-2-(3-methyl-butyl)-6-thiophen-2-yl-2H-pyridazin-3-one]
< 1 µM | CC(C)CCn1nc(-c2cccs2)c(O)c(C2=CS(=O)(=O)c3cc(NS(C)(=O)=O)ccc3N2)c1=O [Compound 29, N-{3-[5-Hydroxy-2-(3-methyl-butyl)-3-oxo-6-thiophen-2-yl-2,3-dihydro-pyridazin-4-yl]-1,1-dioxo-1,4-dihydro-1λ^6-benzo[1,4]thiazin-7-yl}-methanesulfonamide]
> 1 µM | CCCCc1nn(CCC(C)C)c(=O)c(C2=CS(=O)(=O)c3ccccc3N2)c1O [Compound 25, 6-Butyl-4-(1,1-dioxo-1,4-dihydro-1λ^6-benzo[1,4]thiazin-3-yl)-5-hydroxy-2-(3-methyl-butyl)-2H-pyridazin-3-one]
